Measurements as given in patent publication US20250276955A1, “CORONAVIRUS MAIN PROTEASE INHIBITORS AND METHODS USING SAME” (Baylor College of Medicine, priority 2021, published 2025).
In brackets after ≈: the same amount, converted by molar mass.

Columns and labels:
[1] = Plasma stability assay, human plasma; assay type: in vitro ADME; conditions: 10 μM, 37° C., after 2 h incubation
Method: Compound CDD-1713 and CDD-1976 were incubated in human and mouse plasma respectively at a concentration of 10 μM in duplicate (n=2) at 37° C. At time-points of 0, 30, 60 and 120 min, 15 μL of sample were taken out and the reactions terminated by adding 75 μL of ice-cold methanol. The reaction mixtures were then vortexed for 30 sec and centrifuged at rcf 15,000 for 15 min. Following centrifugation, 3 μL of the supernatant was analyzed using UHPLC-Q Exactive Orbitrap MS. The percentage of test compound remaining at the individual time points relative to the 0 min sample was then determined.

HOVPro-Gii.4 = test: Thermal shift, HOVPro-Gii.4; assay type: binding
HepG2 cells = test: HepG2 cell uptake assay; assay type: in vitro ADME; conditions: 10 μM, 2 hours
Method: The HepG2 cells maintained in DMEM (containing 1 g/L glucose, 10% fetal bovine serum and 1% penicillin/streptomycin) were seeded in a 12-well plate (a final density of 5×10^5/well) for cell uptake assay and 96-well plate for cytotoxicity assay (a final density of 5×10^4/well). The plate was incubated at 37° C. for 24 h.
The cells in 12-well plate were treated with CDD-1713 or CDD-1976 (final concentration: 10 μM). The plate was incubated at 37° C. for another 2 hr. The medium in the plate was decanted and the cells were rinsed with 1 mL of 1×DPBS for three times. 0.5 mL of 0.25% Trypsin was added into each well and incubated for 3.5 min (at 37° C.). 1 mL of complete medium was added into each well to quench the reaction. After spinning at 350×g for 5 min, the cell pellet was reconstituted in MeOH/H2O (v/v 1/1) and CDD-1713 or CDD-1976 was extracted from 100 μL of the resulting mixture with 100 μL of ice-cold methanol. The mixtures were centrifuged at rcf 15,000 for 15 min. Three μL of the supernatant was analyzed by UHPLC-Q Exactive Orbitrap MS (Thermo Fisher Scientific, USA) equipped with 50 mm×4.6 mm column (XDB C-18, Agilent Technologies, USA). The column temperature was set at 40° C. Ultra-pure nitrogen was applied as the sheath (45 arbitrary unit), auxiliary (10 arbitrary unit), sweep (1.0 arbitrary unit) and the collision gas. […]

[2] = Apparent solubility in PBS buffer; conditions: PBS buffer with 2% DMSO, aqueous buffer, kinetic from dmso stock

Q: Which “compound remaining in human plasma” value [1] does the source give for `COc1cc(-c2cccc3[nH]ncc23)cc(C=O)c1OCC(=O)N(C)C` [CDD-1713, 2-(2-formyl-4-(1H-indazol-4-yl)-6-methoxyphenoxy)-N,N-dimethylacetamide] here?
A: The value was 80%.

Q: What about the “ΔTm of HOVPro-Gii.4 at 50 μM compound conc.” value (HOVPro-Gii.4) of the same molecule?
A: The value was −0.73 °C.

Q: What about the “cell permeability in HepG2 uptake assay (in words)” value (HepG2 cells) of the same molecule?
A: Its value is “moderate cell permeability”.

Q: What about the solubility [2] of the same molecule?
A: Its solubility is 157 µM (≈ 55.4 µg/mL).
